Assay results as given in ChEMBL document CHEMBL6071156 (Eur J Med Chem, 2024).
Activity calls are given as the source filed them. The rule behind the calls is not given here.

How the values were obtained:
[1] = test system: Chikungunya virus; assay: Antiviral activity against CHIKV S27 in green monkey Vero 76 cells assessed as reduction in virus-induced cytopathic effect; type: functional, organism-based; details: S27, Vero 76
[2] = Cytotoxicity against green monkey Vero 76 cells assessed as reduction in cell viability; type: toxicity, cell-based; details: chlorocebus sabaeus
[3] = Selective index, ratio of ratio of CC50 for cytotoxicity against green monkey Vero 76 cells to EC50 for antiviral activity against CHIKV S27 in green monkey Vero 76 cells assessed as reduction; type: toxicity, cell-based; details: read-out: Selectivity Index
[4] = biological target: Polyprotein P1234 (Chikungunya virus (strain S27-African prototype) (CHIKV)) (UniProt Q8JUX6); details: dose 0.27-600 µM, time 2000-8000 sec
Chain of Polyprotein P1234 (Chikungunya virus (strain S27-African prototype) (CHIKV)) (Q8JUX6 whole entry): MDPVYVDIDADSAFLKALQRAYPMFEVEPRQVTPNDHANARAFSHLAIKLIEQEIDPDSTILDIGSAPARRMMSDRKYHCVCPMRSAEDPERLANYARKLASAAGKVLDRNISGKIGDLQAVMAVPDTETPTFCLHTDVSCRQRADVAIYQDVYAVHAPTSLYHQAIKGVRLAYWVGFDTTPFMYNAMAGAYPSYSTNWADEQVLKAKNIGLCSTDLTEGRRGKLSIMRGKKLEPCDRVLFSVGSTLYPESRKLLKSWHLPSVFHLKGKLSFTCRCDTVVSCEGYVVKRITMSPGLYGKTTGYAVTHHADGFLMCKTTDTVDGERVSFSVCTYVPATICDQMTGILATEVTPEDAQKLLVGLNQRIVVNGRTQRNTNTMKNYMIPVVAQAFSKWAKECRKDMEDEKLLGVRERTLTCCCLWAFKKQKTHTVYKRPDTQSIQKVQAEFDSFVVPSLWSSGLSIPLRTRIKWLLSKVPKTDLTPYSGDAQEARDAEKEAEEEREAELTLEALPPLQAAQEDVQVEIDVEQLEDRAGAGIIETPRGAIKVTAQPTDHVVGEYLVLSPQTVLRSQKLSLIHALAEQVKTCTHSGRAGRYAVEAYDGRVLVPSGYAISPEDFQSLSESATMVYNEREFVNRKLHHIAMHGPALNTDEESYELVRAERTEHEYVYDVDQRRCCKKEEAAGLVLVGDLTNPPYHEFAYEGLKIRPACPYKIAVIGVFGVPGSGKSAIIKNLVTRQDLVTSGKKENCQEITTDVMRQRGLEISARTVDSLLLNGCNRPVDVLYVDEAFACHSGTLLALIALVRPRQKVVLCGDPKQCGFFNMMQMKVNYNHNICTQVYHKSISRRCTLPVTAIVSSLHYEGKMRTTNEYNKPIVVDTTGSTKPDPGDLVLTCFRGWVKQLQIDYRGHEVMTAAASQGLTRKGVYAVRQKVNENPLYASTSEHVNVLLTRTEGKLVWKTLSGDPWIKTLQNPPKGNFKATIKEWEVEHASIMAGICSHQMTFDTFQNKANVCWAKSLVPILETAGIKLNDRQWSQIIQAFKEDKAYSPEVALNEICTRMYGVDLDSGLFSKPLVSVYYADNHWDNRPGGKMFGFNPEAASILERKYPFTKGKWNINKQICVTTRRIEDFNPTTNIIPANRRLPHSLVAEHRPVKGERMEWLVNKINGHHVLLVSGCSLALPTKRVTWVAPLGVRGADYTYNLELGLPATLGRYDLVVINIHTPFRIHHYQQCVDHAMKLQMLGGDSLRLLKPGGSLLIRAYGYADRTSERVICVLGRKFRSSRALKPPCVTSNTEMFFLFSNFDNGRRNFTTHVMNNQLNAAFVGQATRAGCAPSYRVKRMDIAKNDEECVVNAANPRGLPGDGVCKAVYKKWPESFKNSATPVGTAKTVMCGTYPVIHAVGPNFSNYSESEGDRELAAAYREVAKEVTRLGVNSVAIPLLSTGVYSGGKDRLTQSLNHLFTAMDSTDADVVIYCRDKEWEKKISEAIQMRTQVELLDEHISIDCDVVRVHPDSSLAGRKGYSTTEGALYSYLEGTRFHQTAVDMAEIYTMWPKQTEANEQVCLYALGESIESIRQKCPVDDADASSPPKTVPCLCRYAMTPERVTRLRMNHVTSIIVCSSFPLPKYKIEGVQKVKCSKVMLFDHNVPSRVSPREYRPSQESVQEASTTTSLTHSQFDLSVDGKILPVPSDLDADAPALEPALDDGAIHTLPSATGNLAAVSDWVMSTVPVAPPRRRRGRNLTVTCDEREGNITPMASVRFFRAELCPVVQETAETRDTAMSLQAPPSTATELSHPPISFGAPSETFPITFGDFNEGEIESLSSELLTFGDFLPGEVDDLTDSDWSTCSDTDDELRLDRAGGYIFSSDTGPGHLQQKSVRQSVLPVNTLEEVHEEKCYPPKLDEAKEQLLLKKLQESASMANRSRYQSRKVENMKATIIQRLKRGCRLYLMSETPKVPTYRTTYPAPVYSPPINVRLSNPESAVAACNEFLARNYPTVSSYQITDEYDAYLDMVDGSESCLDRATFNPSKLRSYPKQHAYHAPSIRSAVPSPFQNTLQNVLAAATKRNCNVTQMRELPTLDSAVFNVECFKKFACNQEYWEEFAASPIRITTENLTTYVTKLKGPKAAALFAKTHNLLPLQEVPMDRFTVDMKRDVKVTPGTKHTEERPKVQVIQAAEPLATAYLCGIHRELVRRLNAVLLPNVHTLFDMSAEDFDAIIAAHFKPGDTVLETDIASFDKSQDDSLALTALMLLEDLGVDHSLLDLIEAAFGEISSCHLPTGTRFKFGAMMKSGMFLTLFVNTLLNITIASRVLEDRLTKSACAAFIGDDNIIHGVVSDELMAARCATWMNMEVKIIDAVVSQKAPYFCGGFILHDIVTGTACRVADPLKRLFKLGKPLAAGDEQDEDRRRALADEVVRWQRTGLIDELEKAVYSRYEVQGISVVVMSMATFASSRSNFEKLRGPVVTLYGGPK

[5] = biological target: Polyprotein P1234 (Chikungunya virus (strain S27-African prototype) (CHIKV)) (UniProt Q8JUX6); details: dose 0.27-600 µM
[6] = biological target: Polyprotein P1234 (Chikungunya virus (strain S27-African prototype) (CHIKV)) (UniProt Q8JUX6)
[7] = Metabolic stability in human liver microsomes assessed as intrinsic clearance by HPLC-MS/MS analysis; type: ADME, Microsome
[8] = Metabolic stability in CD-1 mouse liver microsomes assessed as half life by HPLC-MS/MS analysis; type: ADME, Microsome
[9] = Metabolic stability in human liver S9 fraction assessed as intrinsic clearance by HPLC-MS/MS analysis; type: ADME, subcellular
[10] = Metabolic stability in human liver S9 fraction assessed as half life by HPLC-MS/MS analysis; type: ADME, subcellular
[11] = test system: Chikungunya virus; assay: Antiviral activity against CHIKV S27 in green monkey Vero 76 cells assessed as reduction in virus yield measured after 3 days by Virus yield reduction assay; type: functional; details: S27, Vero 76, 72 h, time 3 day
[12] = test system: Chikungunya virus; assay: Antiviral activity against CHIKV infected in C57BL/6 mouse assessed as mouse survival at 300 mg/kg/day, ip measured after 6 days post infection after 4 hrs of last treatment; type: functional, organism-based; details: time 6.0 day
[13] = test system: Chikungunya virus; assay: Antiviral activity against CHIKV infected in C57BL/6 mouse assessed as footpad swelling at 300 mg/kg/day, ip measured after 6 days post infection presence of compound (reference value: 40.9+/-12.4); type: functional; details: time 6 day
[14] = test system: Chikungunya virus; assay: Antiviral activity against CHIKV infected in C57BL/6 mouse model assessed as virus titers at 100 mg/kg/day, ip measured after 6 days post infection presence of compound (reference value: 5.3+/0.3); type: functional; details: time 6 day

In the case of `CC1=CC(C)(C)Nc2c(C(=O)N[C@@H](C)/C=C/S(C)(=O)=O)cccc21`, the EC50 [1] is reported as 4.4 µM, the CC50 [2] is reported as > 50 µM and the selectivity ratio [3] is reported as > 11.

In the case of `CC1CC(C)(C)Nc2c(C(=O)NC/C=C/S(C)(=O)=O)cccc21` (stereo not given), the EC50 [1] is reported as 25 µM, the CC50 [2] is reported as > 50 µM and the selectivity ratio [3] is reported as > 2.

In the case of `COC(=O)/C=C/CNC(=O)c1cccc2cccnc12`, the EC50 [1] is reported as > 50 µM and the CC50 [2] is reported as > 50 µM.

With `COC(=O)/C=C/CNC(=O)c1cccc2c1NCCC2` the EC50 [1] was > 50 µM and the CC50 [2] was > 50 µM.

For `COC(=O)/C=C/CNC(=O)c1ccccc1Nc1ccccc1`, the EC50 [1] was > 38 µM and the CC50 [2] was 38 µM.

With `CC1CCc2cccc(C(=O)NC/C=C/S(C)(=O)=O)c2N1` (stereo not given) the EC50 [1] was 0.23 µM, the CC50 [2] was > 50 µM and the selectivity ratio [3] was > 220. The TDI [4] was “Active”, the inhibition [5] was “Dose-Dependent Effect” and the Ratio (10^-6 microM/s) [6] was 35.8. The CLH [7] was < 57.8 µL/min/mg, the t1/2 [8] was 1.356 h and the CLH [9] was < 19.3 µL/min/mg. The t1/2 [10] was > 2 h and the EC90 [11] was 1.5 µM.

For `COC(=O)/C=C/CNC(=O)c1cccc2ccc(C)nc12`, the EC50 [1] was > 34 µM and the CC50 [2] was 34 µM.

For `COC(=O)/C=C/CNC(=O)c1cc(C)cc2c1NC(C)(C)C=C2C`, the EC50 [1] was > 43 µM and the CC50 [2] was > 43 µM.

In the case of `COC(=O)CCCNC(=O)c1cccc2c1NC(C)(C)CC2C` (stereo not given), the EC50 [1] is reported as > 50 µM and the CC50 [2] is reported as > 50 µM.

For `NC(=O)c1nc(F)cnc1O`, the Survival [12] was “Active”, the Activity [13] was 32.6% and the Activity [14] was 5.1.

Work on `CC1=CC(C)(C)Nc2c(C(=O)NC/C=C/S(C)(=O)=O)cccc21` yielded an EC50 [1] of 23 µM and a CC50 [2] of 39 µM.

With `COC(=O)/C=C/CNC(=O)c1cccc2c1NC(C)(C)C=C2C` the EC50 [1] was > 22 µM and the CC50 [2] was > 22 µM.

With `CS(=O)(=O)/C=C/[C@H](Cc1ccccc1)NC(=O)c1cccc2cccnc12` the EC50 [1] was > 50 µM and the CC50 [2] was > 50 µM.

With `COC(=O)/C=C/CNC(=O)c1c[nH]c2ccc(Br)cc12` the EC50 [1] was 3.1 µM and the CC50 [2] was 16 µM.
